Counter-ions that a name gives are not always drawn. Like-named read-outs stand apart in the source and are kept apart here.
Tests used:
primary rat microglia [1] = test system: primary rat microglia
[2] = test system: fibrin-induced microglia activation; experiment: Image-based assay of fibrin-induced microglia activation (HTS and dose response); format: cell-based, rat; details: primary microglia HTS, fibrin stimulation; for inhibition at 10 µM: Rattus norvegicus, Microglia, read-out: Fibrin % inhibition
primary rat microglia [3] = experiment: Cell toxicity (dead cells, size <150 μm2) in coated fibrin (cFib) assay; details: primary microglia HTS;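 further: share of dead cells sized under 150 µm2 at 10 µM in fibrin-stimulated microglia HTS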
[4] = test system: fibrin- and LPS-induced microglia activation; experiment: cells; format: cell-based, rat
[5] = test system: LPS-induced microglia activation; experiment: Image-based assay of LPS-induced microglia activation (HTS and dose response); format: cell-based, rat; details: for inhibition at 10 µM: Rattus norvegicus, Microglia, read-out: LPS % inhibition
[6] = fibrin assay, dead cells (size <150 μm2), compounds at 10 μM
[7] = classification by fibrin and LPS inhibition, HTS at 10 μM
[8] = primary microglia HTS, LPS stimulation, compounds at 10 μM
[9] = fibrin assay, dead cells (size <150 μm2)
[10] = quadrant by fibrin and LPS inhibition, HTS at 10 μM
[11] = cell size >800 μm2 as marker of activation
[12] = fibrin stimulation, cell size <150 μm2 as marker of toxicity
[13] = classification by fibrin and LPS inhibition in HTS

SMILES	LPS % cell toxicity (primary rat microglia [1]; rat) [%]	inhibition at 10 µM ([2]; compounds at 10 μM) [%]	Fibrin % cell toxicity (primary rat microglia [3]; [6]) [%]	Quadrant (FIG. 5b) [4, 7]	inhibition at 10 µM [5, 8] [%]	LPS % cell toxicity (primary rat microglia [1]) [%]	Fibrin % inhibition ([2]; compounds at 10 μM) [%]	LPS % inhibition [5, 8] [%]	Fibrin % cell toxicity (primary rat microglia [3]; [9]) [%]	Quadrant (FIG. 5b) [4, 10]	inhibition at 10 µM [2, 11] [%]	Fibrin % cell toxicity (primary rat microglia [3]; [12]) [%]	Quadrant (FIG. 5b) [4, 13]	inhibition at 10 µM ([5]; 48 h) [%]
CCOC(=O)COc1ccc2c(=O)cc(-c3ccccc3)oc2c1 [Efloxate]	0	-8	1	Q4	-1	–	–	–	–	–	–	–	–	–
CCN[C@@H](C)Cc1cccc(C(F)(F)F)c1 [Dexfenfluramine]	0	-15	1	Q4	5	–	–	–	–	–	–	–	–	–
CN[C@@H]1[C@H](O[C@H]2[C@H](O[C@H]3[C@H](O)[C@@H](O)[C@H](NC(=N)N)[C@@H](O)[C@@H]3NC(=N)N)O[C@@H](C)[C@]2(O)CO)O[C@@H](CO)[C@H](O)[C@H]1O [Dihydrostreptomycin Sulfate]	0	-7	1	Q4	12	–	–	–	–	–	–	–	–	–
O=S(=O)([O-])CCCS(=O)(=O)[O-].[Na+].[Na+] [Eprodisate Disodium]	–	–	1	Q4	–	0	−3	12	–	–	–	–	–	–
O=C1[C@H](CC[C@H](O)c2ccc(F)cc2)[C@@H](c2ccc(O)cc2)N1c1ccc(F)cc1 [Ezetimibe]	0	41	1	Q4	27	–	–	–	–	–	–	–	–	–
CC(=O)Nc1cc([As](=O)(O)O)ccc1O [Acetarsol]	0	-12	–	–	13	–	–	–	0	Q4	–	–	–	–
CN1CCN(C(=O)O[C@H]2c3nccnc3C(=O)N2c2ccc(Cl)cn2)CC1 [Eszopiclone]	0	1	0	Q4	17	–	–	–	–	–	–	–	–	–
CCC1(C)CC(=O)NC1=O (stereo not shown) [Ethosuximide]	0	-9	0	Q4	19	–	–	–	–	–	–	–	–	–
CC(=O)c1ccc2c(c1)N(CCCN(C)C)c1ccccc1S2 [Acepromazine]	1	9	–	–	31	–	–	–	1	Q4	–	–	–	–
CC(=O)N[C@@H](CC(C)C)C(=O)O [Acetyl-l-leucine]	3	-10	–	–	45	–	–	–	5	Q4	–	–	–	–
CC(=O)CC(c1ccc([N+](=O)[O-])cc1)c1c(O)c2ccccc2oc1=O (stereo not shown) [Acenocoumarol, Acenocoumarin]	–	–	–	–	–	0	−38	14	0	Q4	–	–	–	–
Cc1c(NC(C)C)c(=O)n(-c2ccccc2)n1C [Ramifenazone]	0	–	–	–	–	–	–	–	–	–	-11	0	Q4	9
O=C(O)c1cn(-c2ccc(F)cc2)c2cc(N3CCNCC3)c(F)cc2c1=O [Sarafloxacin]	0	–	–	–	–	–	–	–	–	–	2	0	Q4	4
CCN(CCCc1ccccc1)CCCc1ccccc1 [Alverine]	0	-17	–	–	6	–	–	–	0	Q4	–	–	–	–

From US20210330611A1, “THERAPY FOR NEUROLOGICAL DISEASES/DISORDERS” (priority 2020, published 2021)
